Data from patent US9212204B2, “Treatment of rett syndrome using glycyl-L-2-methylprolyl-L-glutamic acid” (priority 2011, dated 2015).
Non-standard residues stand in square brackets, D forms with d. Residues, ends and D or L forms follow the SMILES beside them. αMeP = C[C@@]1(C(=O)O)CCCN1

Experiments:
17 month old rats = assay: 8-arm radial maze test, spatial working memory; type: in vivo, rat; conditions: for Working Correct Choice WCC8-12 across days: 9-day washout
Description: Five months after the original experiment the now 17 month old rats were retested for spatial working memory in a radial arm maze.
The apparatus consists of a central platform communicating with 8 identical arms, each with a food cup at the end of the arm
Rats were partially food-deprived for at least 10 days prior to, and throughout the radial maze procedure.
The maze was assembled and positioned so that the experimenter could clearly observe the rats' behavior from a predetermined location. The experimenter numbered the arms of the maze according to their orientation from one to eight in a clock-wise direction.
On day one the doors were inserted into the arms and each rat was confined in the central platform with 20 food pellets for 5 minutes. […] The following day the rats were allowed five minutes to explore the whole maze. All arms were baited with two food pellets in the food cup located at the end of each arm, and one pellet at both the entrance and middle of each arm. This was repeated for at least five, but up to eight days for rats that explored fewer than eight arms in two consecutive sessions. […] At this point it was decided that one of the old rats that had made only one arm entry on eight of the nine days should be excluded from future testing in this procedure. Otherwise all rats were included regardless of the amount of exploring they performed in pre-training.
30 days before the test (five days after pre-training) the 17 Male Wistar month old rats were implanted (under halothane anesthesia) with sub-cutaneous mini-osmotic pumps (Alzet) to dispense drug continuously for 3 weeks. At the completion of the infusion the pumps were removed and the wounds re-sutured (9-day washout allowed).
3. G-2-MePE low dose (2.4 mg/kg/day) n=13
4. G-2-MePE high dose (12.4 mg/kg/day) n=5
Saline and the low dose groups are comprised of all the rats that received those treatments in phase 1 of this experiment (when the rats were 12 months old) regardless of whether they had the one or three week treatment. One rat in each of the saline and high dose groups have been dropped because of skin tumors.
Working memory testing commenced on the ninth day of washout. Rats received 10 daily training sessions over 12 days. The procedure was the same as for pre-training but only the food cups were baited. Rats had 6 minutes to make up to 16 choices by visiting any of the eight arms. A choice was defined as occurring when all four paws were inside an arm. The experimenter recorded the sequence of arm entries with pen and paper, Sessions were terminated after all eight arms had been entered, 16 choices made, or 6 minutes had elapsed. The time taken to enter all eight arms, when this occurred, was recorded.
An arm choice was considered correct when the rat entered an arm not previously visited. […]

[1] = test system: adult MeCP2+/- female mice; assay: Optical imaging of intrinsic signals, ocular dominance plasticity; type: in vivo, mouse; conditions: monocularly deprived for 4 days, treated concurrently; aged P60 or more
Procedure: For the survival measurements, the nocturnal activity analysis and the immunoblot analysis, G-2-MePE (synthesised Albany Molecular Research Inc. (Albany, N.Y.) and supplied by Neuren Pharmaceuticals Limited) is administered daily via intra-peritoneal injections (20 mg/kg, vehicle=saline, 0.01% BSA). The treatment starts at PI 5 and is maintained throughout the course of the experiments. For intracellular physiology experiments, the mice are injected daily with G-2-MePE (20 mg/kg body weight, vehicle=saline, 0.01% BSA) for 2 weeks, from P15 to P28-P32 when they are used for acute slice preparation. For optical imaging experiments, mice are injected with G-2-MePE (20 mg/kg body weight, vehicle=saline, 0.01% BSA) daily from the day of the lid suture to the day of imaging.
Adult (>P60) wild type (SVEV or BL6) and MeCP2 (+/−) mutant females (BL6) are used for this experiment. The wild type control group is composed of both wild type littermates of MeCP2+/− females or wild type age matched SVEV females. For monocular deprivation, animals are anesthetized with Avertin (0.016 ml/g) and the eyelids of one eye is sutured for 4 days. […] During the imaging session, the animal is constantly oxygenated, its temperature maintained with a heating blanket and the eyes periodically treated with silicone oil; physiological conditions are constantly monitored. […]

C[C@@]1(C(=O)N[C@@H](CCC(=O)O)C(=O)O)CCCN1C(=O)CN [Example G-2-MePE, Glycyl-L-2-methylprolyl-L-glutamic acid] (H-Gly-[αMeP]-Glu-OH)
Correct Choice CC8-12 (17 month old rats; all groups, 10 days of testing): no significant group effect | Working Correct Choice WCC8-12 across days (17 month old rats; high dose 12.4 mg/kg/day s.c. 3 weeks): greatest improvement across days | correct maze choices averaged across days (17 month old rats; higher dose, vs vehicle treated rats, p<0.05, FIG. 18B): more correct entries | Working Correct Choice WCC8-12 across days (17 month old rats; low dose 2.4 mg/kg/day s.c. 3 weeks, vs saline): very little difference | OD plasticity [1]: reduces
